Experimental data taken from patent publication US20090304692A1, “TRIAZINE COMPOUNDS AS PI3 KINASE AND MTOR INHIBITORS” (Wyeth, priority 2008, published 2009).

Legend:
[1] = target: Human mTOR (FLAG-TOR) (Homo sapiens, UniProt P42345); assay: mTOR kinase assay (DELFIA format, purified enzyme); type: biochemical; details: read-out: IC50 mTOR
[2] = target: PI3K-α (Homo sapiens, UniProt P42336); assay: PI3K-alpha fluorescence polarization assay; details: read-out: IC50 PI3Kα
[3] = target: PI3K-γ (Homo sapiens, UniProt P48736); assay: PI3K-gamma fluorescence polarization assay; details: read-out: IC50 PI3Kγ
[4] = system: human prostate PC3-mm2 tumor cell line; assay: In vitro cell culture growth assay (MTS), PC3-mm2; type: cell-based; details: Homo sapiens, PC3MM2, 72 h, MTS cell growth assay, three days after drug treatment; read-out: IC50 PC3-mm2
[5] = system: human breast MDA-MB-361 tumor cell line; assay: In vitro cell culture growth assay (MTS), MDA-MB-361; type: cell-based; details: Homo sapiens, MDA-MB-361, 72 h; MTS cell growth assay, three days after drug treatment; read-out: IC50 MDA-MB-361
[6] = system: human prostate LNCap tumor cell line; assay: In vitro cell culture growth assay (MTS), LNCap; details: Homo sapiens, LNCaP, 72 h, read-out: IC50 LNCap
[7] = target: human SMG-1 (hSMG-1) (Homo sapiens, UniProt Q96Q15); assay: hSMG-1 kinase assay (DELFIA); type: biochemical

Chain of PI3K-γ (P48736 whole entry, species assumed): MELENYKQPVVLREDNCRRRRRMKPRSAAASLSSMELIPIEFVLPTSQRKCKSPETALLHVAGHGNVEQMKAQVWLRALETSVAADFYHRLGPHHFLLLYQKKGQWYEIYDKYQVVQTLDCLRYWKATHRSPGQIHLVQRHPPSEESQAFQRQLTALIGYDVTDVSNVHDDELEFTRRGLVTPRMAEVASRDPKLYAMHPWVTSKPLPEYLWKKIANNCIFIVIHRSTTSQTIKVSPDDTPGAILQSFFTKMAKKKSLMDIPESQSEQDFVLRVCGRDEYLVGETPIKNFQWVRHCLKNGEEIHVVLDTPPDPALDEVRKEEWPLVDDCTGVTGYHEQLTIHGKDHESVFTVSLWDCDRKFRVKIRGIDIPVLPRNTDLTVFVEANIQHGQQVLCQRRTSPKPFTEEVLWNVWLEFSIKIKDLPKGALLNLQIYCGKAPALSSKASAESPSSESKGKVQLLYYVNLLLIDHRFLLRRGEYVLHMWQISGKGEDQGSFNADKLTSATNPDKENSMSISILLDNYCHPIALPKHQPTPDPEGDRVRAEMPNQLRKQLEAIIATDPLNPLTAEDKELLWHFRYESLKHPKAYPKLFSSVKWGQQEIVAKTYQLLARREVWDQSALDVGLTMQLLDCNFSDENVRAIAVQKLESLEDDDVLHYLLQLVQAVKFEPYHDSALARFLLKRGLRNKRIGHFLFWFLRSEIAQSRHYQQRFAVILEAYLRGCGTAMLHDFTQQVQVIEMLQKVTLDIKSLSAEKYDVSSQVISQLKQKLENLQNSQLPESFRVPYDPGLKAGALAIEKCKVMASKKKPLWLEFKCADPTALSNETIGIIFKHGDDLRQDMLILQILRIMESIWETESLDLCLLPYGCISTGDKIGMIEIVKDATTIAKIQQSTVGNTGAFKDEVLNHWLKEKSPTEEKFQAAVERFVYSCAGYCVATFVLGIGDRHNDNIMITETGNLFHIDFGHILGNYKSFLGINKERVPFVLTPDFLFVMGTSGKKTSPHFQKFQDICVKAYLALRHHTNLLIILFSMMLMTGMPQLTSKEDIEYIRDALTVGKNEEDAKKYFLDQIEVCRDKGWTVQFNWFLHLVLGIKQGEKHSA
Chain of Human mTOR (FLAG-TOR) (P42345 1360-2549 limits assumed): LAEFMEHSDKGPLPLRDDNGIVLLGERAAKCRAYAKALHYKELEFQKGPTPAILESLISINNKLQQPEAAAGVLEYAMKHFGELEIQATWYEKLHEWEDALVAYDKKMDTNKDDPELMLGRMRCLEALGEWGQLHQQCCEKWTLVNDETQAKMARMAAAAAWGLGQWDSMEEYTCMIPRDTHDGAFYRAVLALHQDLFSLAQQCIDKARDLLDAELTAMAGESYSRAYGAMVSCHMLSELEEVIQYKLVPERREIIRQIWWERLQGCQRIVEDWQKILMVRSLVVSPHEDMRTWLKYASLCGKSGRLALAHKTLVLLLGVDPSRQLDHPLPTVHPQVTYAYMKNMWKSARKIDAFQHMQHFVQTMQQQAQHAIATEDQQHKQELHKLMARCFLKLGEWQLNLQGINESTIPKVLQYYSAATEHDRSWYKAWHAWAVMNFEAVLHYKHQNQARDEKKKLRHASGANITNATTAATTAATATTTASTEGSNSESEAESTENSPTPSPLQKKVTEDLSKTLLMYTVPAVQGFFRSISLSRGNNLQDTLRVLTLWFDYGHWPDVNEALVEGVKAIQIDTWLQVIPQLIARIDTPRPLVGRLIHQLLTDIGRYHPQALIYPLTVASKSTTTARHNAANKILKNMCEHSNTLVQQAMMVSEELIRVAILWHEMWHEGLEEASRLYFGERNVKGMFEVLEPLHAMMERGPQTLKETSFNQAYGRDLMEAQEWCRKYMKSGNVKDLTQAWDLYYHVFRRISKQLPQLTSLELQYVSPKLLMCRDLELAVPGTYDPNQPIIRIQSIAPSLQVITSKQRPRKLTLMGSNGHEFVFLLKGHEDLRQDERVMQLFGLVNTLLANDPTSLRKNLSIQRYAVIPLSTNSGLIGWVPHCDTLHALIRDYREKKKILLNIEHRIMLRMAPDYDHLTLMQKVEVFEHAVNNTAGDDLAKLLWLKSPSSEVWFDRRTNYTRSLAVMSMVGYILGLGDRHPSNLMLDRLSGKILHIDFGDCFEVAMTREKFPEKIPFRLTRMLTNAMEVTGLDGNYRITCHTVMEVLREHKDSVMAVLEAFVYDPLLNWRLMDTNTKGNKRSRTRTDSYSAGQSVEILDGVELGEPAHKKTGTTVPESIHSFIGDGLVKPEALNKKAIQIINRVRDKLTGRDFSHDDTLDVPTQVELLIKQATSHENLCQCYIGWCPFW
Chain of PI3K-α (P42336 whole entry, species assumed): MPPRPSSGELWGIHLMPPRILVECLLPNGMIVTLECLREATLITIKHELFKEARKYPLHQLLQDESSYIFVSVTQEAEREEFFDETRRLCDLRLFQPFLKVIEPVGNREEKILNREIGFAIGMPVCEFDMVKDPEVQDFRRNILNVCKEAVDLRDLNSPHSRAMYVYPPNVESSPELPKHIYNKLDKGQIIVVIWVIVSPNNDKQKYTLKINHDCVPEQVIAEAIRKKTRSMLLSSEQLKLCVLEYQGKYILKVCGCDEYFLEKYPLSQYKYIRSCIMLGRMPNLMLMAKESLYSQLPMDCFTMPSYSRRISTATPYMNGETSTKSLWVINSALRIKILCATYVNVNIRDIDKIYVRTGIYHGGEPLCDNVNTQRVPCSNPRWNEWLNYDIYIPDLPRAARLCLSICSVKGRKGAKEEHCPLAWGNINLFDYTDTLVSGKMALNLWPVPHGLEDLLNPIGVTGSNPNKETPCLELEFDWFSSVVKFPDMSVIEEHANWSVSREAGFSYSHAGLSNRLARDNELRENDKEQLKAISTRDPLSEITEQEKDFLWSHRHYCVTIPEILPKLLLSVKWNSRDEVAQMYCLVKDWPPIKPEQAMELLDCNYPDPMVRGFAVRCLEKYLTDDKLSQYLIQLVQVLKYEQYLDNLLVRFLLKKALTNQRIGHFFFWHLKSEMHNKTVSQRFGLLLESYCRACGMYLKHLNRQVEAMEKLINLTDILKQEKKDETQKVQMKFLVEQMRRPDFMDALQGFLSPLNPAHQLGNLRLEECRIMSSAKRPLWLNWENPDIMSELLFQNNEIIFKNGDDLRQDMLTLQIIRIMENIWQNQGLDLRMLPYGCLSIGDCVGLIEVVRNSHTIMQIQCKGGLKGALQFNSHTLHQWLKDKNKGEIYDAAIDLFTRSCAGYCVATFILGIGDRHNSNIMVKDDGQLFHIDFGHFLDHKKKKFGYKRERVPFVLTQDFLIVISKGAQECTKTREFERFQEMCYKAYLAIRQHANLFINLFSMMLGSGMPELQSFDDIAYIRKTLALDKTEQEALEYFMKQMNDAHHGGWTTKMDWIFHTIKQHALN
Chain of PI3K-α (P27986 whole entry partner, species assumed): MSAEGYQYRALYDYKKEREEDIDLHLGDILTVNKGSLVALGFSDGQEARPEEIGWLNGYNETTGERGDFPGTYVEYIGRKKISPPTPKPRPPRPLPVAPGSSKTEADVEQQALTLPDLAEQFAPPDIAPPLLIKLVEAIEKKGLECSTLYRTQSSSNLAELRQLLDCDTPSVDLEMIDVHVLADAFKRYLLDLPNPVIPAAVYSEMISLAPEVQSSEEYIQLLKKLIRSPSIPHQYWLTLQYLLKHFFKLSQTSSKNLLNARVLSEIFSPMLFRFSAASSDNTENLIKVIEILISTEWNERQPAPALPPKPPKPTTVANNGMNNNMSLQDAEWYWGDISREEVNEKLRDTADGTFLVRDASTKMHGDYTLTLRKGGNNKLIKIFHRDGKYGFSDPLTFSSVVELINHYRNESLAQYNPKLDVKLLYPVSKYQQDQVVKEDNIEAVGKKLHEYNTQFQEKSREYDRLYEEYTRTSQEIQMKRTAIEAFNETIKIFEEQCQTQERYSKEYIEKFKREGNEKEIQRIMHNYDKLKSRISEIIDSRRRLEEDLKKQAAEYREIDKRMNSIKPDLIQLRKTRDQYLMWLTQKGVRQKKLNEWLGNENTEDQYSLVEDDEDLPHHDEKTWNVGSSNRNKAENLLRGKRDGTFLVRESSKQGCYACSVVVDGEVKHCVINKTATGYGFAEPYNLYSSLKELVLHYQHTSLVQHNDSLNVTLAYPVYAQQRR

IC50 [1] [nM] | IC50 [2] [nM] | melting point [°C] | IC50 [3] [nM] | IC50 [4] [nM] | IC50 [5] [nM] | IC50 [6] [nM] | IC50 [7] [nM] | Compound
85 | 90 | 202 | 323 |  |  |  |  | CC(=O)c1ccc(NC(=O)Nc2ccc(-c3nc(N4CCOCC4)nc(N4C[C@H]5C[C@@H]4CN5C(=O)OC(C)(C)C)n3)cc2)cc1 [Example 257, tert-butyl (1R,4R)-5-[4-(4-{[(4-acetylphenyl)carbamoyl]amino}phenyl)-6-morpholin-4-yl-1,3,5-triazin-2-yl]-2,5-diazabicyclo[2.2.1]heptane-2-carboxylate]
1.8 | 6 | 258 | 40 | 48 | 38 |  |  | O=C(Nc1ccncc1)Nc1ccc(-c2nc(N3CCOCC3)nc(N3CC4CCC(C3)O4)n2)cc1 [Example 48, 1-{4-[4-morpholin-4-yl-6-(8-oxa-3-azabicyclo[3.2.1]oct-3-yl)-1,3,5-triazin-2-yl]phenyl}-3-pyridin-4-ylurea]
35 |  |  |  |  |  | 3800 | 200 | CNC(=O)Nc1ccc(-c2nc(-c3ccc(NC(=O)Nc4ccncc4)cc3)nc(N3C(C)COCC3C)n2)cc1 (centres unmarked) [Example 472, 1-{4-[4-(3,5-dimethylmorpholin-4-yl)-6-{4-[(methylcarbamoyl)amino]phenyl}-1,3,5-triazin-2-yl]phenyl}-3-pyridin-4-ylurea]
32 | 68 | 192 | 182 |  |  |  |  | CC(C)(C)OC(=O)N1C[C@H]2C[C@@H]1CN2c1nc(-c2ccc(NC(=O)Nc3ccncc3)cc2)nc(N2CCOCC2)n1 [Example 256, tert-butyl(1R,4R)-5-(4-morpholin-4-yl-6-{4-[(pyridin-4-ylcarbamoyl)amino]phenyl}-1,3,5-triazin-2-yl)-2,5-diazabicyclo[2.2.1]heptane-2-carboxylate]
1 | 3 | 296 to 298 | 20 | 31 | 68 |  |  | O=C(Nc1ccc(C(=O)NCc2ccccn2)cc1)Nc1ccc(-c2nc(N3CCOCC3)nc(N3CCOCC3)n2)cc1 [Example 263, 4-({[4-(4,6-dimorpholin-4-yl-1,3,5-triazin-2-yl)phenyl]carbamoyl}amino)-N-(pyridin-2-ylmethyl)benzamide]
23 |  |  |  |  |  | 2800 | 130 | CNC(=O)Nc1ccc(-c2nc(-c3ccc(NC(=O)Nc4cccc(C(N)=O)c4)cc3)nc(N3C(C)COCC3C)n2)cc1 (centres unmarked) [Example 469, 3-[({4-[4-(3,5-dimethylmorpholin-4-yl)-6-{4-[(methylcarbamoyl)amino]phenyl}-1,3,5-triazin-2-yl]phenyl}carbamoyl)amino]benzamide]
1.05 | 3 | 238 | 30 | 16 | 14 |  |  | O=C(Nc1ccncc1)Nc1ccc(-c2nc(OC3CCOCC3)nc(N3CCOCC3)n2)cc1 [Example 59, 1-{4-[4-morpholin-4-yl-6-(tetrahydro-2H-pyran-4-yloxy)-1,3,5-triazin-2-yl]phenyl}-3-pyridin-4-ylurea]
 |  |  |  |  |  | 130 | 5 | CNC(=O)Nc1ccc(-c2nc(-c3ccc(NC(=O)Nc4ccncc4)cc3)nc(N3CC4CCC(C3)O4)n2)cc1 [Example 471, 1-methyl-3-{4-[4-(8-oxa-3-azabicyclo[3.2.1]oct-3-yl)-6-{4-[(pyridin-4-ylcarbamoyl)amino]phenyl}-1,3,5-triazin-2-yl]phenyl}urea]
48 |  |  |  |  |  |  | 5650 | c1cc(-c2nc(N3CCOCC3)nc(N3CCOCC3)n2)ccc1NC1=NCCN1 [Example 474, N-[4-(4,6-dimorpholin-4-yl-1,3,5-triazin-2-yl)phenyl]-4,5-dihydro-1H-imidazol-2-amine]
7 |  |  |  |  |  | 1000 | 195 | CNC(=O)Nc1ccc(-c2nc(-c3ccc(NC(=O)Nc4ccc(C(N)=O)cc4)cc3)nc(N3C(C)COCC3C)n2)cc1 (centres unmarked) [Example 470, 4-[({4-[4-(3,5-dimethylmorpholin-4-yl)-6-{4-[(methylcarbamoyl)amino]phenyl}-1,3,5-triazin-2-yl]phenyl}carbamoyl)amino]benzamide]
27 | 27 | 212 | 100 | 279 | 225 |  |  | O=C(Nc1ccncc1)Nc1ccc(-c2nc(N3CCC3)nc(N3CCOCC3)n2)cc1 [Example 140, 1-[4-(4-azetidin-1-yl-6-morpholin-4-yl-1,3,5-triazin-2-yl)phenyl]-3-pyridin-4-ylurea]
21 | 115 | 204 | 498 |  |  |  |  | O=C(Nc1ccc(C(=O)O)cc1)Nc1ccc(-c2nc(N3CCC3)nc(N3CCOCC3)n2)cc1 [Example 195, 4-({[4-(4-azetidin-1-yl-6-morpholin-4-yl-1,3,5-triazin-2-yl)phenyl]carbamoyl}amino) benzoic acid]
1 |  |  |  |  |  |  | 5 | CNC(=O)Nc1ccc(-c2nc(-c3ccc(NC(=O)Nc4cccc(C(N)=O)c4)cc3)nc(N3CC4CCC(C3)O4)n2)cc1 [Example 465, 3-[({4-[4-{4-[(methylcarbamoyl)amino]phenyl}-6-(8-oxa-3-azabicyclo[3.2.1]oct-3-yl)-1,3,5-triazin-2-yl]phenyl}carbamoyl)amino]benzamide]
5.3 | 39 | 218 | 106 | 340 | 297 |  |  | COC(=O)c1ccc(NC(=O)Nc2ccc(-c3nc(C(C)C)nc(N4CCOCC4)n3)cc2)cc1 [Example 300, methyl 4-[({4-[4-(1-methylethyl)-6-morpholin-4-yl-1,3,5-triazin-2-yl]phenyl}carbamoyl)amino]benzoate]
18500 |  |  |  |  |  |  | > 20000 | c1cc(-c2nc(N3CCOCC3)nc(N3CCOCC3)n2)ccc1-c1nn[nH]n1 [Example 475, 2,4-dimorpholin-4-yl-6-[4-(2H-tetrazol-5-yl)phenyl]-1,3,5-triazine]
17 |  |  |  |  |  |  | 510 | CNC(=O)Nc1ccc(-c2nc(-c3ccc(NC(=O)Nc4cccnc4)cc3)nc(N3C(C)COCC3C)n2)cc1 (centres unmarked) [Example 463, 1-{4-[4-(3,5-dimethylmorpholin-4-yl)-6-{4-[(methylcarbamoyl)amino]phenyl}-1,3,5-triazin-2-yl]phenyl}-3-pyridin-3-ylurea]
26 | 241 | 212 | 3380 |  |  |  |  | COC(=O)c1ccc(NC(=O)Nc2ccc(-c3nc(N4CCC4)nc(N4CCOCC4)n3)cc2)cc1 [Example 141, methyl 4-({[4-(4-azetidin-1-yl-6-morpholin-4-yl-1,3,5-triazin-2-yl)phenyl]carbamoyl}amino)benzoate]
13 | 6 | 170 | 55 | 82 | 50 |  |  | CN1CCN(C(=O)c2ccc(NC(=O)Nc3ccc(-c4nc(N5CCC5)nc(N5CCOCC5)n4)cc3)cc2)CC1 [Example 196, 1-[4-(4-azetidin-1-yl-6-morpholin-4-yl-1,3,5-triazin-2-yl)phenyl]-3-{4-[(4-methylpiperazin-1-yl)carbonyl]phenyl}urea]
